One data set addresses T1, hGLP1R (Homo sapiens, UniProt P43220).
T1 construct: expressed in transfected cells; host or cells: HEK-293 CRE-luciferase reporter cells
The data set can be described thus: hGLP1R CreLuc assay in 0.5% and 100% plasma (HEK-293 CRE-luciferase reporter cells). Format: cell-based. Conditions: 0.5% human plasma, HEK-293 reporter cells, read-out: hGLP1R 0.5% hP. In general terms: In a reporter assay the amount or activity of a reporter protein is the signal.

Another data set has as its target T2, hGIPR (Homo sapiens, UniProt P48546).
T2 construct: expressed in transfected cells; host or cells: CHO CRE-luciferase reporter cells
T2 sequence (P48546 22-466): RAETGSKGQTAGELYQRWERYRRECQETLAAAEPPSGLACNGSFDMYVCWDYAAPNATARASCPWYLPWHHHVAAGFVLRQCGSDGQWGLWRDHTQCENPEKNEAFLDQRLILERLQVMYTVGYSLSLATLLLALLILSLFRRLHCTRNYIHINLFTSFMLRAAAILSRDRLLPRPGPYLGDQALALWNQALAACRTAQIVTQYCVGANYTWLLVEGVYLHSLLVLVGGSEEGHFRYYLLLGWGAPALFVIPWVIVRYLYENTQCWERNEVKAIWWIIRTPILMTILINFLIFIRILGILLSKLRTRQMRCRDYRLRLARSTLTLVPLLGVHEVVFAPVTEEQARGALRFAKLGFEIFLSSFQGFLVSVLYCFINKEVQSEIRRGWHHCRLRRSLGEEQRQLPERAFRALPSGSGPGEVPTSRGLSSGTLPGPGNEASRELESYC
The data set can be described thus: hGIPR CreLuc assay in 0.5% and 100% plasma (CHO CRE-luciferase reporter cells). It counts as cell-based.

Data set [1] is described as follows: Solubility in 0.1 M phosphate buffer at pH 7. The settings on record: 0.1 M phosphate buffer at pH 7, 10 mg/mL final peptide concentration, shaking 2 hours at room temperature, peptides as TFA-salts; measured sample pH 6.5-7.0. Format: physicochemical.
Another data set concerns the target T3, human GIP receptor (human, UniProt P48546 22-466).
T3 sequence (looked up): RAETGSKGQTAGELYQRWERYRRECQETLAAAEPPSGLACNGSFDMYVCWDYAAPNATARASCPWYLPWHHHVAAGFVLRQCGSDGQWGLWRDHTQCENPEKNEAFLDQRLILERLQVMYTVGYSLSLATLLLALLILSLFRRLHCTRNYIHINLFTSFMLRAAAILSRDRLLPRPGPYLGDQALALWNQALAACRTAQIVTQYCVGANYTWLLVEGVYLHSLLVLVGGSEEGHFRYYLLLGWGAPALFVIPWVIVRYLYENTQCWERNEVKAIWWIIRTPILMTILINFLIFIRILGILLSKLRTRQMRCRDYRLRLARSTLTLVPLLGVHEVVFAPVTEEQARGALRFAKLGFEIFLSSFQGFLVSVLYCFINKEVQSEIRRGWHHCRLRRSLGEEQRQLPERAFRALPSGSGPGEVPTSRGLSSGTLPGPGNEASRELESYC
Description: cell-based or functional assay.

Data set [2] concerns the target T4, human neuropeptide Y2 receptor (human, UniProt P49146 1-381).
T4 sequence (looked up): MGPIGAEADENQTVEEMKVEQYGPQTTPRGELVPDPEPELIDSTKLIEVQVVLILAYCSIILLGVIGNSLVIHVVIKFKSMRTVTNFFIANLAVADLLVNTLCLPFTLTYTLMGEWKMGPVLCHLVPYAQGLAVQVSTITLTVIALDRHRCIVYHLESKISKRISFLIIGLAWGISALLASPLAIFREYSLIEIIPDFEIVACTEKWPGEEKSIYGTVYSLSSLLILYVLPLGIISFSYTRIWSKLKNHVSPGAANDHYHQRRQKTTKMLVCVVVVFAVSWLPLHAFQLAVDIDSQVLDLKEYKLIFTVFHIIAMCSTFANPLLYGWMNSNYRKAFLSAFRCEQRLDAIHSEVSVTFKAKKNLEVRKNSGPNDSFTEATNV
Description: cell-based or functional assay.

Setting [3] is: 0.5% human plasma, read-out: hGIPR 0.5% hP.
Setting [4] is: 100% human plasma, read-out: hGIPR 100% hP.

This is an account of results in US20250382344A1, “Soluble GLP1/GIP/NPY2 Receptor Triple Agonists” (Boehringer Ingelheim International GmH, priority 2024, published 2025).

Read-outs that look alike come from different tables or passages of the source. *1 amine or outer side, *2 acyl side, *3 side chain or, on linkers, in order; H or OH if unused. Where no end group is shown, it is not given here. Side-chain parts run from the residue outwards. [ ]: non-standard residue; d: D form. The star is where a group is joined. C18 diacid = O=C(O)CCCCCCCCCCCCCCCCC(=O)*; γGlu = O=C(O)[C@H](CCC(=O)[*:2])N[*:1]; εLys = N[C@@H](CCCCN[*:1])C(=O)[*:2]; Aib = CC(C)(N)C(=O)O

T1 sequence (P43220 24-463): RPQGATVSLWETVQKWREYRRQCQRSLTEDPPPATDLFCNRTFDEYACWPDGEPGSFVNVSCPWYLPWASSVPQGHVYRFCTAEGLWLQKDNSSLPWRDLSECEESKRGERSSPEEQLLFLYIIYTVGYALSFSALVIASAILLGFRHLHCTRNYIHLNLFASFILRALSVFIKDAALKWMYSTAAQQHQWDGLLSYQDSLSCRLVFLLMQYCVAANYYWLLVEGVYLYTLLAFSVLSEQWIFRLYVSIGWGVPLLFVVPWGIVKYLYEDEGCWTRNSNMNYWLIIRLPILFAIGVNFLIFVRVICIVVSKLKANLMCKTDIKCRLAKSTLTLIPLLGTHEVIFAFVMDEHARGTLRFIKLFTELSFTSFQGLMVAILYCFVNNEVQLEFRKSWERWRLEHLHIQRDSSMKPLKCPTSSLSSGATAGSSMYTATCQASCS

As a reminder, the solubility is how much of the substance goes into solution per volume. Consider `CC[C@H](C)[C@H](NC(=O)[C@H](CC(C)C)NC(=O)[C@H](Cc1c[nH]cn1)NC(=O)[C@H](CCCNC(=N)N)NC(=O)[C@@H](NC(=O)[C@H](Cc1ccccc1)NC(=O)[C@H](C)NC(=O)C(C)(C)NC(=O)[C@H](CCC(N)=O)NC(=O)[C@H](C)NC(=O)[C@H](CCC(N)=O)NC(=O)[C@H](CCCCN)NC(=O)[C@H](CCC(=O)O)NC(=O)[C@H](CC(C)C)NC(=O)C(C)(C)NC(=O)[C@@H](NC(=O)[C@H](CO)NC(=O)[C@H](Cc1ccc(O)cc1)NC(=O)[C@H](CC(=O)O)NC(=O)[C@H](CO)NC(=O)[C@@H](NC(=O)[C@H](Cc1ccccc1)NC(=O)[C@@H](NC(=O)CNC(=O)[C@H](CCC(=O)O)NC(=O)C(C)(C)NC(=O)[C@@H](N)Cc1ccc(O)cc1)[C@@H](C)O)[C@@H](C)O)[C@@H](C)CC)C(C)C)C(=O)N[C@@H](CC(N)=O)C(=O)N[C@@H](CCCCNC(=O)CC[C@H](NC(=O)CC[C@H](NC(=O)CC[C@H](NC(=O)CC[C@H](NC(=O)CC[C@H](NC(=O)CCCCCCCCCCCCCCCCC(=O)O)C(=O)O)C(=O)O)C(=O)O)C(=O)O)C(=O)O)C(=O)N[C@@H](CC(C)C)C(=O)N[C@H](C(=O)N[C@@H](CCCNC(=N)N)C(=O)N[C@@H](CCC(N)=O)C(=O)N[C@@H](CCCNC(=N)N)C(=O)N[C@@H](Cc1ccc(O)cc1)C(N)=O)[C@@H](C)O` [Compound 158, Y-Aib-E-G-T-F-T-S-D-Y-S-I-Aib-L-E-K-Q-A-Q-Aib-A-F-V-R-H-L-I-N-K(1,3)-L-T-R-Q-R-Y-NH2.C18DA-gGlu-gGlu-gGlu-gGlu-gGlu(1,2)], for which the EC50 was 0.6 nM on hGLP1R, 0.5 nM at hGIPR (setting [3]) and 14.4 nM at hGIPR (setting [4]). The solubility at 2 h in data set [1] was 3200 µg/mL.

For `CC[C@H](C)[C@H](NC(=O)[C@H](CO)NC(=O)[C@H](Cc1ccc(O)cc1)NC(=O)[C@H](CC(=O)O)NC(=O)[C@H](CO)NC(=O)[C@@H](NC(=O)[C@H](Cc1ccccc1)NC(=O)[C@@H](NC(=O)CNC(=O)[C@H](CCC(=O)O)NC(=O)C(C)(C)NC(=O)[C@@H](N)Cc1ccc(O)cc1)[C@@H](C)O)[C@@H](C)O)C(=O)N[C@@H](CCC(=O)O)C(=O)N[C@@H](CC(C)C)C(=O)N[C@@H](CCC(=O)O)C(=O)N[C@@H](CCCCN)C(=O)N[C@@H](CCC(N)=O)C(=O)N[C@@H](C)C(=O)N[C@@H](CCC(N)=O)C(=O)NC(C)(C)C(=O)N[C@@H](C)C(=O)N[C@@H](Cc1ccccc1)C(=O)N[C@H](C(=O)N[C@@H](CCCNC(=N)N)C(=O)N[C@@H](Cc1c[nH]cn1)C(=O)N[C@@H](CC(C)C)C(=O)N[C@H](C(=O)N[C@@H](CC(N)=O)C(=O)N[C@@H](CCCCNC(=O)[C@@H](N)CCCCNC(=O)CC[C@H](NC(=O)CC[C@H](NC(=O)CC[C@H](NC(=O)CC[C@H](NC(=O)CC[C@H](NC(=O)CC[C@H](NC(=O)CCCCCCCCCCCCCCCCC(=O)O)C(=O)O)C(=O)O)C(=O)O)C(=O)O)C(=O)O)C(=O)O)C(=O)NC(C)(C)C(=O)N[C@H](C(=O)N[C@@H](CCCNC(=N)N)C(=O)N[C@@H](CCC(N)=O)C(=O)N[C@@H](CCCNC(=N)N)C(=O)N[C@@H](Cc1ccc(O)cc1)C(N)=O)[C@@H](C)O)[C@@H](C)CC)C(C)C` [Compound 160, Y-Aib-E-G-T-F-T-S-D-Y-S-I-E-L-E-K-Q-A-Q-Aib-A-F-V-R-H-L-I-N-K(1,3)-Aib-T-R-Q-R-Y-NH2.C18DA-gGlu-gGlu-gGlu-gGlu-gGlu-gGlu-eLys(1,2)], the EC50 at hGLP1R came to 7.1 nM; at hGIPR (setting [3]), 0.4 nM. Further, the solubility at 2 h in data set [1] was 5200 µg/mL.

Consider `CC[C@H](C)[C@H](NC(=O)[C@H](CC(C)C)NC(=O)[C@H](Cc1c[nH]cn1)NC(=O)[C@H](CCCNC(=N)N)NC(=O)[C@@H](NC(=O)[C@H](Cc1ccccc1)NC(=O)[C@H](CCC(=O)O)NC(=O)C(C)(C)NC(=O)[C@H](CCC(N)=O)NC(=O)[C@H](C)NC(=O)[C@H](CCC(N)=O)NC(=O)[C@H](CCCCN)NC(=O)[C@H](CCC(=O)O)NC(=O)[C@H](CC(C)C)NC(=O)C(C)(C)NC(=O)[C@@H](NC(=O)[C@H](CO)NC(=O)[C@H](Cc1ccc(O)cc1)NC(=O)[C@H](CC(=O)O)NC(=O)[C@H](CO)NC(=O)[C@@H](NC(=O)[C@H](Cc1ccccc1)NC(=O)[C@@H](NC(=O)CNC(=O)[C@H](CCC(=O)O)NC(=O)C(C)(C)NC(=O)[C@@H](N)Cc1ccc(O)cc1)[C@@H](C)O)[C@@H](C)O)[C@@H](C)CC)C(C)C)C(=O)N[C@@H](CC(N)=O)C(=O)N[C@@H](CCCCNC(=O)[C@@H](N)CCCCNC(=O)CC[C@H](NC(=O)CC[C@H](NC(=O)CC[C@H](NC(=O)CC[C@H](NC(=O)CCCCCCCCCCCCCCCCC(=O)O)C(=O)O)C(=O)O)C(=O)O)C(=O)O)C(=O)NC(C)(C)C(=O)N[C@H](C(=O)N[C@@H](CCCNC(=N)N)C(=O)N[C@@H](CCC(N)=O)C(=O)N[C@@H](CCCNC(=N)N)C(=O)N[C@@H](Cc1ccc(O)cc1)C(N)=O)[C@@H](C)O` [Compound 163, Y-Aib-E-G-T-F-T-S-D-Y-S-I-Aib-L-E-K-Q-A-Q-Aib-E-F-V-R-H-L-I-N-K(1,3)-Aib-T-R-Q-R-Y-NH2.C18DA-gGlu-gGlu-gGlu-gGlu-eLys(1,2)], for which the EC50 on hGLP1R worked out at 0.1 nM; on hGIPR (setting [3]) it was 0.2 nM; at hGIPR (setting [4]), 5.9 nM. Also, in data set [1], the solubility at 2 h came to 5000 µg/mL.

Consider Y[Aib]EGTFTSDYSI[Aib]LEKQAQ[Aib]AFVRHLINK([εLys-εLys-γGlu-γGlu-γGlu-γGlu-γGlu-γGlu-C18 diacid])[Aib]TRQRY-NH2 [Compound 11], for which the “EC50, CreLuc reporter, 100% hP” value with human GIP receptor is 8 nM.

B1: Compound 17 (peptide)
peptide: YXEGTFTSDYSIXLEKQAQXAFVRHLINKXTRQRY
modifications: Aib at 2, 13, 20, 30; NMeQ at 33; Lys29 epsilon-amino acylated with C18DA-gGlu-gGlu-gGlu-gGlu-gGlu-gGlu-eLys; C-terminal amide
Consider B1, for which the “EC50, CreLuc reporter, 100% hP” value with human GIP receptor worked out at 2 nM. In addition, the “EC50, CreLuc reporter, 0.5% hP” value in data set [2] was determined as 29.4 nM.

B2: Compound 15 (peptide)
peptide: YXEGTFTSDFSIXLEKQAQXAFVRHLINKXTRQRY
modifications: Aib at 2, 13, 20, 30; Lys29 epsilon-amino acylated with C20DA-gGlu-gGlu-gGlu-gGlu-gGlu-gGlu-eLys; C-terminal amide
As for B2, the “EC50, CreLuc reporter, 0.5% hP” value with human GIP receptor is 0.6 nM.

B3: Compound 53 (peptide)
peptide: YXEGTFTSDYSIXLEKQAQXAFIRHLINKXTRQRY
modifications: Aib at 2, 20, 30; aMeL at 13; Lys29 epsilon-amino acylated with C20DA-gGlu-gGlu-gGlu-gGlu-gGlu-gGlu-eLys; C-terminal amide
B3: in the data set with human GIP receptor, the “EC50, CreLuc reporter, 0.5% hP” value was determined as 0.1 nM and the “EC50, CreLuc reporter, 100% hP” value came out at 1.7 nM.
